Data published in US20070142392A1, “Uses of rifamycins” (ActivBiotics, Inc., priority 2005, published 2007).
Converted amounts (≈) assume the structure as drawn.

Legend:
Format in all cases: cell-based
S. aureus = test: MIC values, S. aureus (Tables 1-4)
S. pneumo. = test: MIC values, S. pneumo. (Tables 1-4)
E. faecalis = test: MIC values, E. faecalis (Tables 1-4)
H. flu = tested on: H. flu
E. coli = test: MIC values, E. coli (Tables 1-4)

SMILES | MIC S. aureus (S. aureus) | MIC S. pneumo. (S. pneumo.) | MIC E. faecalis (E. faecalis) | MIC H. flu (H. flu) | MIC E. coli (E. coli)
CO[C@H]1/C=C/O[C@@]2(C)Oc3c(C)c(O)c4c(=O)c(c5oc6cc(N7CCOCC7)cc(O)c6nc-5c4c3C2=O)NC(=O)/C(C)=C\C=C\[C@H](C)[C@H](O)[C@@H](C)[C@@H](O)[C@@H](C)[C@H](O)[C@@H]1C [Compound 131] | 0.004 µg/mL (≈ 0.00474 µM) | 0.00025 µg/mL (≈ 0.000296 µM) | 0.06 µg/mL (≈ 0.0711 µM) | 0.12 µg/mL (≈ 0.142 µM) | >8 µg/mL
CO[C@H]1/C=C/O[C@@]2(C)Oc3c(C)c(O)c4c(=O)c(c5oc6cc(N7CCCN(C)CC7)cc(O)c6nc-5c4c3C2=O)NC(=O)/C(C)=C\C=C\[C@H](C)[C@H](O)[C@@H](C)[C@@H](O)[C@@H](C)[C@H](O)[C@@H]1C [Compound 124] | 0.004 µg/mL (≈ 0.00459 µM) | 0.00012 µg/mL (≈ 0.000138 µM) | 0.03 µg/mL (≈ 0.0344 µM) | 0.25 µg/mL (≈ 0.287 µM) | 4 µg/mL (≈ 4.59 µM)
COC1C=COC2(C)Oc3c(C)c(O)c4c(=O)c(c5sc6cc(N7CCN8CCCC8C7)ccc6nc-5c4c3C2=O)NC(=O)C(C)=CC=CC(C)C(O)C(C)C(O)C(C)C(O)C1C (centres unmarked) [Compound 77] | 0.002 µg/mL (≈ 0.00226 µM) | 0.00025 µg/mL (≈ 0.000283 µM) | 0.25 µg/mL (≈ 0.283 µM) | 0.12 µg/mL (≈ 0.136 µM) | 2 µg/mL (≈ 2.26 µM)
COC1C=COC2(C)Oc3c(C)c(O)c4c(=O)c(c5oc6cc(N7CC8CCCNC8C7)cc(O)c6nc-5c4c3C2=O)NC(=O)C(C)=CC=CC(C)C(O)C(C)C(O)C(C)C(O)C1C (centres unmarked) [Compound 144] | 0.03 µg/mL (≈ 0.034 µM) | 0.002 µg/mL (≈ 0.00226 µM) | 0.25 µg/mL (≈ 0.283 µM) | 1 µg/mL (≈ 1.13 µM) | >8 µg/mL
CO[C@H]1/C=C/O[C@@]2(C)Oc3c(C)c(O)c4c(=O)c(c5sc6cc(N7CCCN(C)CC7)ccc6nc-5c4c3C2=O)NC(=O)/C(C)=C\C=C\[C@H](C)[C@H](O)[C@@H](C)[C@@H](O)[C@@H](C)[C@H](O)[C@@H]1C [Compound 125] | 0.002 µg/mL (≈ 0.0023 µM) | 0.00025 µg/mL (≈ 0.000287 µM) | 0.25 µg/mL (≈ 0.287 µM) | 0.12 µg/mL (≈ 0.138 µM) | 2 µg/mL (≈ 2.3 µM)
CO[C@H]1/C=C/O[C@@]2(C)Oc3c(C)c(O)c4c(=O)c(c5oc6cc(N7CCC(N8CCOCC8)CC7)cc(O)c6nc-5c4c3C2=O)NC(=O)/C(C)=C\C=C\[C@H](C)[C@H](O)[C@@H](C)[C@@H](O)[C@@H](C)[C@H](OC(C)=O)[C@@H]1C [Compound 9] | 0.015 µg/mL (≈ 0.0155 µM) | 0.001 µg/mL (≈ 0.00103 µM) | 2 µg/mL (≈ 2.06 µM) | 2 µg/mL (≈ 2.06 µM) | 8 µg/mL (≈ 8.26 µM)
CCCNC(=O)NC1CCN(c2cc(O)c3nc4c5c6c7c(C)c(O)c5c(=O)c(c-4oc3c2)NC(=O)/C(C)=C\C=C\[C@H](C)[C@H](O)[C@@H](C)[C@@H](O)[C@@H](C)[C@H](O)[C@H](C)[C@@H](OC)/C=C/O[C@@](C)(O7)C6=O)CC1 [Compound 26] | 0.008 µg/mL (≈ 0.00849 µM) | 0.00012 µg/mL (≈ 0.000127 µM) | 2 µg/mL (≈ 2.12 µM) | 1 µg/mL (≈ 1.06 µM) | >8 µg/mL
CO[C@H]1/C=C/O[C@@]2(C)Oc3c(C)c(O)c4c(=O)c(c5oc6cc(N7CCC(CCO)CC7)cc(O)c6nc-5c4c3C2=O)NC(=O)/C(C)=C\C=C\[C@H](C)[C@H](O)[C@@H](C)[C@@H](O)[C@@H](C)[C@H](O)[C@@H]1C [Compound 66] | 0.004 µg/mL (≈ 0.00451 µM) | 0.0005 µg/mL (≈ 0.000564 µM) | 0.12 µg/mL (≈ 0.135 µM) | 0.12 µg/mL (≈ 0.135 µM) | 4 µg/mL (≈ 4.51 µM)
CCOC(=O)N1CCCC2CN(c3cc(O)c4nc5c6c7c8c(C)c(O)c6c(=O)c(c-5oc4c3)NC(=O)C(C)=CC=CC(C)C(O)C(C)C(O)C(C)C(O)C(C)C(OC)C=COC(C)(O8)C7=O)CC21 (centres unmarked) [Compound 148] | 0.008 µg/mL (≈ 0.00838 µM) | 0.00012 µg/mL (≈ 0.000126 µM) | 2 µg/mL (≈ 2.09 µM) | 0.5 µg/mL (≈ 0.524 µM) | 8 µg/mL (≈ 8.38 µM)
CO[C@H]1/C=C/O[C@@]2(C)Oc3c(C)c(O)c4c(=O)c(c5oc6cc(N7CCC(C(N)=O)CC7)cc(O)c6nc-5c4c3C2=O)NC(=O)/C(C)=C\C=C\[C@H](C)[C@H](O)[C@@H](C)[C@@H](O)[C@@H](C)[C@H](O)[C@@H]1C [Compound 112] | 0.03 µg/mL (≈ 0.0339 µM) | 0.002 µg/mL (≈ 0.00226 µM) | 1 µg/mL (≈ 1.13 µM) | 0.25 µg/mL (≈ 0.282 µM) | >8 µg/mL
CO[C@H]1/C=C/O[C@@]2(C)Oc3c(C)c(O)c4c(=O)c(c5oc6c(C)c(N7CCC7)cc(C)c6nc-5c4c3C2=O)NC(=O)/C(C)=C\C=C\[C@H](C)[C@H](O)[C@@H](C)[C@@H](O)[C@@H](C)[C@H](O)[C@@H]1C [Compound 126] | 0.03 µg/mL (≈ 0.0363 µM) | 0.004 µg/mL (≈ 0.00484 µM) | 1 µg/mL (≈ 1.21 µM) | 0.25 µg/mL (≈ 0.303 µM) | 8 µg/mL (≈ 9.69 µM)
CCNC(=O)NC1CCN(c2cc(O)c3nc4c5c6c7c(C)c(O)c5c(=O)c(c-4oc3c2)NC(=O)/C(C)=C\C=C\[C@H](C)[C@H](O)[C@@H](C)[C@@H](O)[C@@H](C)[C@H](O)[C@H](C)[C@@H](OC)/C=C/O[C@@](C)(O7)C6=O)CC1 [Compound 37] | 0.03 µg/mL (≈ 0.0323 µM) | 0.004 µg/mL (≈ 0.00431 µM) | 2 µg/mL (≈ 2.16 µM) | 0.25 µg/mL (≈ 0.269 µM) | >8 µg/mL
CO[C@H]1/C=C/O[C@@]2(C)Oc3c(C)c(O)c4c(=O)c(c5oc6cc(N7CCC(NS(C)(=O)=O)CC7)cc(O)c6nc-5c4c3C2=O)NC(=O)/C(C)=C\C=C\[C@H](C)[C@H](O)[C@@H](C)[C@@H](O)[C@@H](C)[C@H](OC(C)=O)[C@@H]1C [Compound 25] | 0.008 µg/mL (≈ 0.00819 µM) | 0.001 µg/mL (≈ 0.00102 µM) | 2 µg/mL (≈ 2.05 µM) | 2 µg/mL (≈ 2.05 µM) | >8 µg/mL
COCCN1CCN(c2cc(O)c3nc4c5c6c7c(C)c(O)c5c(=O)c(c-4oc3c2)NC(=O)/C(C)=C\C=C\[C@H](C)[C@H](O)[C@@H](C)[C@@H](O)[C@@H](C)[C@H](O)[C@H](C)[C@@H](OC)/C=C/O[C@@](C)(O7)C6=O)CC1 [Compound 92] | 0.004 µg/mL (≈ 0.00444 µM) | 0.00025 µg/mL (≈ 0.000277 µM) | 0.12 µg/mL (≈ 0.133 µM) | 0.25 µg/mL (≈ 0.277 µM) | 8 µg/mL (≈ 8.88 µM)
CCCS(=O)(=O)NC1CCN(c2cc(O)c3nc4c5c6c7c(C)c(O)c5c(=O)c(c-4oc3c2)NC(=O)/C(C)=C\C=C\[C@H](C)[C@H](O)[C@@H](C)[C@@H](O)[C@@H](C)[C@H](O)[C@H](C)[C@@H](OC)/C=C/O[C@@](C)(O7)C6=O)CC1 [Compound 67] | 0.008 µg/mL (≈ 0.00831 µM) | 0.001 µg/mL (≈ 0.00104 µM) | 0.5 µg/mL (≈ 0.519 µM) | 0.12 µg/mL (≈ 0.125 µM) | >8 µg/mL
CO[C@H]1/C=C/O[C@@]2(C)Oc3c(C)c(O)c4c(=O)c(c5oc6c(C)c(N7CCCC7)cc(C)c6nc-5c4c3C2=O)NC(=O)/C(C)=C\C=C\[C@H](C)[C@H](O)[C@@H](C)[C@@H](O)[C@@H](C)[C@H](O)[C@@H]1C [Compound 119] | 0.5 µg/mL (≈ 0.595 µM) | 0.5 µg/mL (≈ 0.595 µM) | 2 µg/mL (≈ 2.38 µM) | 2 µg/mL (≈ 2.38 µM) | >8 µg/mL
COC1C=COC2(C)Oc3c(C)c(O)c4c(=O)c(c5oc6cc(N7CC8C(C7)C8NC(=O)OCC[Si](C)(C)C)cc(O)c6nc-5c4c3C2=O)NC(=O)C(C)=CC=CC(C)C(O)C(C)C(O)C(C)C(OC(C)=O)C1C (centres unmarked) [Compound 2] | 1 µg/mL (≈ 0.96 µM) | 0.03 µg/mL (≈ 0.0288 µM) | >8 µg/mL | >8 µg/mL | >8 µg/mL
CO[C@H]1/C=C/O[C@@]2(C)Oc3c(C)c(O)c4c(=O)c(c5oc6cc(N7CCC(F)CC7)ccc6nc-5c4c3C2=O)NC(=O)/C(C)=C\C=C\[C@H](C)[C@H](O)[C@@H](C)[C@@H](O)[C@@H](C)[C@H](O)[C@@H]1C [Compound 114] | 0.03 µg/mL (≈ 0.0355 µM) | 0.008 µg/mL (≈ 0.00948 µM) | 0.5 µg/mL (≈ 0.592 µM) | 0.12 µg/mL (≈ 0.142 µM) | 8 µg/mL (≈ 9.48 µM)
CO[C@H]1/C=C/O[C@@]2(C)Oc3c(C)c(O)c4c(=O)c(c5oc6cc(N7CCC(F)(F)CC7)ccc6nc-5c4c3C2=O)NC(=O)/C(C)=C\C=C\[C@H](C)[C@H](O)[C@@H](C)[C@@H](O)[C@@H](C)[C@H](O)[C@@H]1C [Compound 115] | 0.03 µg/mL (≈ 0.0348 µM) | 0.015 µg/mL (≈ 0.0174 µM) | 1 µg/mL (≈ 1.16 µM) | 0.25 µg/mL (≈ 0.29 µM) | >8 µg/mL
